Results as given in patent US7858796B2, “Chemical compounds” (Glaxo Group Limited, priority 2004, dated 2010).

Test system: human monocyte stimulated cytokine production (TNF-α)
Test: Monocyte Assay (LPS-stimulated TNF-α production)
Format: cell-based
Conditions: human CD14+ monocytes, 200 ng/mL LPS, 24 hrs, TNF-α by ELISA
Procedure: Effect of IKK-β inhibition on human monocyte stimulated cytokine production was assessed as follows: Monocytes were isolated from heparinized whole blood by Ficoll gradient, followed by purification of CD14+ cells using MACS magnetic cell separation beads. Isolated monocytes were then adhered to 96-well culture plates at 1×10^6 cells/mL in RPMI 1640 10% FBS (JRH Biosciences, Lenexa Kans.) for 2 h. to further enrich the monocyte population. The media was then removed, cells washed once with RPMI 1640, and 0.125 mL RPMI 1640 10% FBS was added to the wells. Test compounds are added to the wells 30 minutes prior to stimulation with a final vehicle concentration of 0.1% DMSO. Monocytes were activated by the addition of 200 ng/mL endotoxin (LPS; E. coli serotype 026:B6) (Sigma, St. Louis, Mo.) and incubated for 24 hrs at 37 C. Cell-free supernates were analyzed by ELISA for TNF-α using Pharmingen matched pair Abs. Viability of the cells was determined by10% trypan blue exclusion.

| IC50 [µM] | Compound |
| --- | --- |
| < 10 | NCCS(=O)(=O)N1CCC(c2c[nH]c3c(C(N)=O)cc(-c4ccccc4)cc23)CC1 [Example 1, 3-{1-[(2-aminoethyl)sulfonyl]-4-piperidinyl}-5-phenyl-1H-indole-7-carboxamide] |
| < 10 | CN(C)CCS(=O)(=O)N1CCC(c2c[nH]c3c(C(N)=O)cc(-c4ccccc4)cc23)CC1 [Example 2, 3-(1-{[2-(dimethylamino)ethyl]sulfonyl}-4-piperidinyl)-5-phenyl-1H-indole-7-carboxamide] |
| < 10 | CN(C)CCCS(=O)(=O)N1CCC(c2c[nH]c3c(C(N)=O)cc(-c4ccccc4)cc23)CC1 [Example 3, 3-(1-{[3-(dimethylamino)propyl]sulfonyl}-4-piperidinyl)-5-phenyl-1H-indole-7-carboxamide] |
| < 10 | CN1CCN(CCCS(=O)(=O)N2CCC(c3c[nH]c4c(C(N)=O)cc(-c5ccccc5)cc34)CC2)CC1 [Example 4, 3-(1-{[3-(4-methyl-1-piperazinyl)propyl]sulfonyl}-4-piperidinyl)-5-phenyl-1H-indole-7-carboxamide] |
| < 10 | NC(=O)c1cc(-c2ccccc2)cc2c(C3CCN(S(=O)(=O)CCCN4CCCCC4)CC3)c[nH]c12 [Example 5, 5-phenyl-3-(1-{[3-(1-piperidinyl)propyl]sulfonyl}-4-piperidinyl)-1H-indole-7-carboxamide] |
| < 10 | NC(=O)c1cc(-c2ccccc2)cc2c(C3CCN(S(=O)(=O)CCCN4CCOCC4)CC3)c[nH]c12 [Example 6, 3-(1-{[3-(4-morpholinyl)propyl]sulfonyl}-4-piperidinyl)-5-phenyl-1H-indole-7-carboxamide] |
| < 10 | NC(=O)c1cc(-c2ccccc2)cc2c(C3CCN(S(=O)(=O)CCCN4CCCC4)CC3)c[nH]c12 [Example 7, 5-phenyl-3-(1-{[3-(1-pyrrolidinyl)propyl]sulfonyl}-4-piperidinyl)-1H-indole-7-carboxamide] |
| < 10 | NC(=O)c1cc(-c2ccsc2)cc2c(C3CCN(S(=O)(=O)CCCN4CCCC4)CC3)c[nH]c12 [Example 8, 3-(1-{[3-(1-pyrrolidinyl)propyl]sulfonyl}-4-piperidinyl)-5-(3-thienyl)-1H-indole-7-carboxamide] |
| < 10 | CN(C)CCCS(=O)(=O)N1CCC(c2c[nH]c3c(C(N)=O)cc(-c4ccsc4)cc23)CC1 [Example 9, 3-(1-{[3-(dimethylamino)propyl]sulfonyl}-4-piperidinyl)-5-(3-thienyl)-1H-indole-7-carboxamide] |
| < 10 | CN(C)CCCS(=O)(=O)N1CCC(c2c[nH]c3c(C(N)=O)cc(-c4cccs4)cc23)CC1 [Example 10, 3-(1-{[3-(dimethylamino)propyl]sulfonyl}-4-piperidinyl)-5-(2-thienyl)-1 indole-7-carboxamide] |
| < 10 | NC(=O)c1cc(-c2cccs2)cc2c(C3CCN(S(=O)(=O)CCCN4CCCC4)CC3)c[nH]c12 [Example 11, 3-(1-{[3-(1-pyrrolidinyl)propyl]sulfonyl}-4-piperidinyl)-5-(2-thienyl)-1 indole-7-carboxamide] |
| < 10 | CC1CCCN1CCCS(=O)(=O)N1CCC(c2c[nH]c3c(C(N)=O)cc(-c4cccs4)cc23)CC1 (stereo not drawn) [Example 12, 3-(1-{[3-(2-methyl-1-pyrrolidinyl)propyl]sulfonyl}-4-piperidinyl)-5-(2-thienyl)-11 indole-7-carboxamide] |
| < 10 | NC(=O)c1cc(-c2cccs2)cc2c(C3CCN(S(=O)(=O)CCCNC4CCCC4)CC3)c[nH]c12 [Example 13, 3-(1-{[3-(cyclopentylamino)propyl]sulfonyl}-4-piperidinyl)-5-(2-thienyl)-1H-indole-7-carboxamide] |
| < 10 | NC(=O)c1cc(-c2cccs2)cc2c(C3CCN(S(=O)(=O)CCCN4CCC(O)CC4)CC3)c[nH]c12 [Example 14, 3-(1-{[3-(4-hydroxy-1-piperidinyl)propyl]sulfonyl}-4-piperidinyl)-5-(2-thienyl)-1-indole-7-carboxamide] |
| < 10 | NC(=O)c1cc(-c2cccs2)cc2c(C3CCN(S(=O)(=O)CCNC4CCCC4)CC3)c[nH]c12 [Example 15, 3-(1-{[2-(cyclopentylamino)ethyl]sulfonyl}-4-piperidinyl)-5-(2-thienyl)-1H-indole-7-carboxamide] |
| < 10 | NC(=O)c1cc(-c2ccsc2)cc2c(C3CCN(S(=O)(=O)CCN4CCCC4)CC3)c[nH]c12 [Example 16, 3-(1-{[2-(1-pyrrolidinyl)ethyl]sulfonyl}-4-piperidinyl)-5-(3-thienyl)-1H-indole-7-carboxamide] |
| < 10 | CN(C)CCS(=O)(=O)N1CCC(c2c[nH]c3c(C(N)=O)cc(-c4ccsc4)cc23)CC1 [Example 17, 3-(1-{[2-(dimethylamino)ethyl]sulfonyl}-4-piperidinyl)-5-(3-thienyl)-1H-indole-7-carboxamide] |

| IC50 [µM] | Compound |
| --- | --- |
| < 10 | NC(=O)c1cc(-c2ccsc2)cc2c(C3CCN(S(=O)(=O)CCNC4CCCC4)CC3)c[nH]c12 [Example 18, 3-(1-{[2-(cyclopentylamino)ethyl]sulfonyl}-4-piperidinyl)-5-(3-thienyl)-11 indole-7-carboxamide] |
| < 10 | NC(=O)c1cc(-c2ccsc2)cc2c(C3CCN(S(=O)(=O)CCNC4CCC(O)CC4)CC3)c[nH]c12 (stereo not drawn) [Example 19, 3-[1-({2-[(4-hydroxycyclohexyl)amino]ethyl}sulfonyl)-4-piperidinyl]-5-(3-thienyl)-1H-indole-7-carboxamide] |
| < 10 | NC(=O)c1cc(-c2ccccc2)cc2c(C3CCN(S(=O)(=O)CCO)CC3)c[nH]c12 [Example 20, 3-{1-[(2-hydroxyethyl)sulfonyl]-4-piperidinyl}-5-phenyl-1H-indole-7-carboxamide] |
| < 10 | NC(=O)c1cc(-c2ccc(Cl)s2)cc2c(C3CCN(S(=O)(=O)CCCN4CCCC4)CC3)c[nH]c12 [Example 21, 5-(5-chloro-2-thienyl)-3-(1-{[3-(1-pyrrolidinyl)propyl]sulfonyl}-4-piperidinyl)-1H-indole-7-carboxamide] |
| < 10 | CNCCS(=O)(=O)N1CCC(c2c[nH]c3c(C(N)=O)cc(-c4ccccc4)cc23)CC1 [Example 22, 3-(1-{[2-(methylamino)ethyl]sulfonyl}-4-piperidinyl)-5-phenyl-1H-indole-7-carboxamide] |
| < 10 | NC(=O)c1cc(-c2ccc(CO)s2)cc2c(C3CCN(S(=O)(=O)CCCN4CCCC4)CC3)c[nH]c12 [Example 63, 5-[5-(hydroxymethyl)-2-thienyl]-3-(1-{[3-(1-pyrrolidinyl)propyl]sulfonyl}-4-piperidinyl)-1H-indole-7-carboxamide] |
| < 10 | NC(=O)c1cc(-c2ccc(CN3CCCC3)s2)cc2c(C3CCN(S(=O)(=O)CCCN4CCCC4)CC3)c[nH]c12 [Example 64, 5-[5-(1-pyrrolidinylmethyl)-2-thienyl]-3-(1-{[3-(1-pyrrolidinyl)propyl]sulfonyl}-4-piperidinyl)-1H-indole-7-carboxamide] |
| < 10 | CNCc1ccc(-c2cc(C(N)=O)c3[nH]cc(C4CCN(S(=O)(=O)CCCN5CCOCC5)CC4)c3c2)s1 [Example 65, 5-{5-[(methylamino)methyl]-2-thienyl}-3-(1-{[3-(4-morpholinyl)propyl]sulfonyl}-4-piperidinyl)-1H-indole-7-carboxamide] |
| < 10 | CCNCc1ccc(-c2cc(C(N)=O)c3[nH]cc(C4CCN(S(=O)(=O)CCCN5CCOCC5)CC4)c3c2)s1 [Example 66, 5-{5-[(ethylamino)methyl]-2-thienyl}-3-(1-{[3-(4-morpholinyl)propyl]sulfonyl}-4-piperidinyl)-1H-indole-7-carboxamide] |
| < 10 | CC(C)N(CCCS(=O)(=O)N1CCC(c2c[nH]c3c(C(N)=O)cc(-c4ccccc4)cc23)CC1)C(C)C [Example 67, 3-[1-({3-[bis(1-methylethyl)amino]propyl}sulfonyl)-4-piperidinyl]-5-phenyl-1H-indole-7-carboxamide] |
| < 10 | COCCS(=O)(=O)N1CCC(c2c[nH]c3c(C(N)=O)cc(-c4ccccc4)cc23)CC1 [Example 68, 3-(1-{[2-(methyloxy)ethyl]sulfonyl}-4-piperidinyl)-5-phenyl-1 indole-7-carboxamide] |
| < 10 | C[C@@H]1CC[C@@H](C)N1CCCS(=O)(=O)N1CCC(c2c[nH]c3c(C(N)=O)cc(-c4ccccc4)cc23)CC1 [Example 69, 3-[1-({3-[(2R,5R)-2,5-dimethyl-1-pyrrolidinyl]propyl}sulfonyl)-4-piperidinyl]-5-phenyl-1H-indole-7-carboxamide] |
| < 10 | CN1CCN(CCCS(=O)(=O)N2CCC(c3c[nH]c4c(C(N)=O)cc(-c5cccs5)cc34)CC2)CC1 [Example 70, 3-(1-{[3-(4-methyl-1-piperazinyl)propyl]sulfonyl}-4-piperidinyl)-5-(2-thienyl)-1H-indole-7-carboxamide] |
| < 10 | NC(=O)c1cc(-c2ccsc2)cc2c(C3CCN(S(=O)(=O)CCCN4CCC(O)CC4)CC3)c[nH]c12 [Example 71, 3-(1-{[3-(4-hydroxy-1-piperidinyl)propyl]sulfonyl}-4-piperidinyl)-5-(3-thienyl)-1H-indole-7-carboxamide] |
| < 10 | CN1CCN(CCCS(=O)(=O)N2CCC(c3c[nH]c4c(C(N)=O)cc(-c5ccsc5)cc34)CC2)CC1 [Example 72, 3-(1-{[3-(4-methyl-1-piperazinyl)propyl]sulfonyl}-4-piperidinyl)-5-(3-thienyl)-1H-indole-7-carboxamide] |
| < 10 | NC(=O)c1cc(-c2cccs2)cc2c(C3CCN(S(=O)(=O)CCCN4CCOCC4)CC3)c[nH]c12 [Example 73, 3-(1-{[3-(4-morpholinyl)propyl]sulfonyl}-4-piperidinyl)-5-(2-thienyl)-1H-indole-7-carboxamide] |
